The test system of this assay is model rats suffering from walking disability due to compression of cauda equina. Put plainly: walking disability model due to compression of cauda equina (treadmill walking distance). Format: in vivo, Wistar strain rats. Conditions: rat, oral twice daily, suspension 0.2 mg/mL in 0.5 w/v % methyl cellulose, until 13th or 20th day after operation; vs control group p<0.01. As for the experimental part: Wistar strain rats (male; seven weeks age) (Charles Liver Japan) were subjected to a walk training once daily for continuous three or four days using a treadmill (manufactured by Muromachi Kikai). On the last day of the walk training, the animals were grouped and, on the next day, the walking time was measured and then a sham operation or an operation for compressing the cauda equina mentioned below i) was carried out. On the third, seventh, fourteenth and twenty-first days after the operation, walking time was measured. Based on the walking time measured, a walking distance was calculated.
After measuring the walking time on the third day, the group for which the operation for compressing the cauda equina was carried out was further grouped into a control group and a drug-administered group on the basis of their walking distances on the day when the operation was done and on the third day after the operation. […]
The treadmill was operated and walking time of each rat was measured using a timer. […]
As to the evaluation, the control group was evaluated by a Welch test against the sham operation group (##: p<0.01). The drug-administered group was evaluated by a t-test or a Welch test against the control group (★★: p<0.01).

The values that follow come from US8629145B2, “Therapeutic agent for spinal canal stenosis” (Nippon Shinyaku Co., Ltd., priority 2008, dated 2014).

`CC(C)N(CCCCOCC(=O)NS(C)(=O)=O)c1cnc(-c2ccccc2)c(-c2ccccc2)n1` [compound A, 2-{4-[N-(5,6-diphenylpyrazin-2-yl)-N-isopropylamino]butyloxy}-N-(methylsulfonyl)acetamide]: the “disability in walking due to compression of cauda equina (walking distance)” value is given as “significantly improved”.
